Source: ChEMBL document CHEMBL3885861, “Open TG-GATES”

Species on record: Rattus norvegicus
Assay: Open TG-GATES - Regimen: Single
Assay type: toxicity, organism-based, Sprague-Dawley
Design: regimen Single, gender Male, age 6 weeks
Settings: in vivo, ip, 40 mg/kg, route intraperitoneal injection, dose level Low; for APTT / Bas / Eos / Fbg / Hb / Ht / Lym / MCH / MCHC / MCV / Mono / Neu / PT / Plat / RBC / Ret / WBC: tissue Blood; for KIDNEY_L / KIDNEY_R / KIDNEY_TOTAL: tissue Kidney; for LIVER: tissue Liver; for A/G / ALP / ALT / AST / BUN / CRE / Ca / Cl / DBIL / GLC / IP / K / LDH / Na / PL / RALB / TBIL / TC / TG / TP / gamma-GTP: tissue Plasma

## CC(C)=CC(=O)C=C(C)C [PHORONE]
3 h
  TERMINAL_BW: 219.9 g
  APTT: 16.7 s
  Bas: 0%
  Eos: 0.8%
  Fbg: 211 mg/dL
  Hb: 13.1 g/dL
  Ht: 39.1%
  Lym: 69.8%
  MCH: 21.6 pg
  MCHC: 33.5%
  MCV: 64.4 fL
  Mono: 8.4%
  Neu: 21.2%
  PT: 12.2 s
  Plat: 112.1 x10_4/uL
  RBC: 608 x10_4/ul
  Ret: 9.2%
  WBC: 105.8 x10_2/uL
  KIDNEY_L: 1 g
  KIDNEY_R: 1 g
  KIDNEY_TOTAL: 2 g
  LIVER: 10.5 g
  A/G: 2.3
  ALP: 735.6 IU/L
  ALT: 36.4 IU/L
  AST: 78.6 IU/L
  BUN: 14.8 mg/dL
  CRE: 0.6 mg/dL
  Ca: 10.6 mg/dL
  Cl: 106 meq/L
  DBIL: 0.034 mg/dL
  GLC: 193.6 mg/dL
  IP: 10.3 mg/dL
  K: 4.8 meq/L
  LDH: 83.8 IU/L
  Na: 139 meq/L
  PL: 133.6 mg/dL
  RALB: 3.6 g/dL
  TBIL: 0.4 mg/dL
  TC: 75.4 mg/dL
  TG: 46 mg/dL
  TP: 5.2 g/dL
  gamma-GTP: 2.4 IU/L
6 h
  TERMINAL_BW: 219.1 g
  APTT: 17.2 s
  Bas: 0%
  Eos: 0.6%
  Fbg: 216.8 mg/dL
  Hb: 13.5 g/dL
  Ht: 40.3%
  Lym: 66.2%
  MCH: 21.6 pg
  MCHC: 33.4%
  MCV: 64.8 fL
  Mono: 6.6%
  Neu: 26.8%
  PT: 12.3 s
  Plat: 114.9 x10_4/uL
  RBC: 621.6 x10_4/ul
  Ret: 9%
  WBC: 90 x10_2/uL
  KIDNEY_L: 1 g
  KIDNEY_R: 1 g
  KIDNEY_TOTAL: 2.1 g
  LIVER: 9.8 g
  A/G: 2.2
  ALP: 814.6 IU/L
  ALT: 36.2 IU/L
  AST: 70.8 IU/L
  BUN: 13.8 mg/dL
  CRE: 0.5 mg/dL
  Ca: 10.8 mg/dL
  Cl: 105 meq/L
  DBIL: 0.048 mg/dL
  GLC: 193.4 mg/dL
  IP: 10.1 mg/dL
  K: 4.9 meq/L
  LDH: 76 IU/L
  Na: 138.2 meq/L
  PL: 126.4 mg/dL
  RALB: 3.6 g/dL
  TBIL: 0.5 mg/dL
  TC: 72.2 mg/dL
  TG: 36.6 mg/dL
  TP: 5.3 g/dL
  gamma-GTP: 1.6 IU/L
9 h
  TERMINAL_BW: 220.4 g
  APTT: 17.1 s
  Bas: 0%
  Eos: 1%
  Fbg: 246.6 mg/dL
  Hb: 13.2 g/dL
  Ht: 39.8%
  Lym: 63.8%
  MCH: 21.8 pg
  MCHC: 33.3%
  MCV: 65.5 fL
  Mono: 8.6%
  Neu: 26.6%
  PT: 12.1 s
  Plat: 115.4 x10_4/uL
  RBC: 609 x10_4/ul
  Ret: 9.4%
  WBC: 96.2 x10_2/uL
  KIDNEY_L: 1 g
  KIDNEY_R: 1 g
  KIDNEY_TOTAL: 2 g
  LIVER: 9.5 g
  A/G: 2
  ALP: 839.8 IU/L
  ALT: 33.2 IU/L
  AST: 69 IU/L
  BUN: 13.8 mg/dL
  CRE: 0.5 mg/dL
  Ca: 10.8 mg/dL
  Cl: 106.6 meq/L
  DBIL: 0.04 mg/dL
  GLC: 204.2 mg/dL
  IP: 10 mg/dL
  K: 4.7 meq/L
  LDH: 91.4 IU/L
  Na: 138.8 meq/L
  PL: 131.8 mg/dL
  RALB: 3.6 g/dL
  TBIL: 0.4 mg/dL
  TC: 77.6 mg/dL
  TG: 54 mg/dL
  TP: 5.4 g/dL
  gamma-GTP: 1.8 IU/L
24 h
  TERMINAL_BW: 231.5 g
  APTT: 16.9 s
  Bas: 0%
  Eos: 0.8%
  Fbg: 231.2 mg/dL
  Hb: 12.9 g/dL
  Ht: 38.5%
  Lym: 77.8%
  MCH: 22 pg
  MCHC: 33.6%
  MCV: 65.4 fL
  Mono: 5.6%
  Neu: 16%
  PT: 11.5 s
  Plat: 113 x10_4/uL
  RBC: 589.8 x10_4/ul
  Ret: 8.8%
  WBC: 87.7 x10_2/uL
  KIDNEY_L: 1 g
  KIDNEY_R: 1 g
  KIDNEY_TOTAL: 2 g
  LIVER: 11.8 g
  A/G: 2
  ALP: 774.8 IU/L
  ALT: 34 IU/L
  AST: 65 IU/L
  BUN: 19.2 mg/dL
  CRE: 0.5 mg/dL
  Ca: 11 mg/dL
  Cl: 104.4 meq/L
  DBIL: 0.028 mg/dL
  GLC: 197.2 mg/dL
  IP: 8.3 mg/dL
  K: 4.7 meq/L
  LDH: 87.6 IU/L
  Na: 139 meq/L
  PL: 156 mg/dL
  RALB: 3.8 g/dL
  TBIL: 0.4 mg/dL
  TC: 81.8 mg/dL
  TG: 118.2 mg/dL
  TP: 5.7 g/dL
  gamma-GTP: 0.6 IU/L
